What all share (format): biochemical
One assay concerns the target T1, PCAF (Homo sapiens, UniProt Q92831).
T1 construct: purchased Reaction Biology Corporation, Malvern, PA, USA
Nature of the assay: HotSpot KAT assay. To be noted: means ± SD of three experiments, read-out: Residual Enzymatic Activity (%) PCAF. The method, then:
(§1) The ef fects of 1-13 on th e histone lysine acetyltr a nsferas e activity (KAT ) o f p300 and PCAF were
(§2) determined using the HotSpot KAT assay ( Reaction Biology Corporation, Malvern, PA, USA)
(§3) according to the supplier’s procedure. In brief, recombinant form s of catal ytic domains of PCAF
(§4) NaCl, 0.1 mM EDTA, 1 mM DTT, 1 mM PMSF, 1% (v/v) DMSO) fo r 1 h at 30 °C in the presenc e
(§5) or absence of various concentrations of the inhibitors. Histone H3 acetyl ation was assessed by
(§6) liquid scintillation counting using a Tri-Carb 2800TR Liquid Scintillation Analyzer
(§7) (PerkinElmer). Assays at fixed con centration doses were performed in triplicate and analyzed
(§8) using Excel and GraphPad Prism 6.0 software (GraphPad Software Inc., San Diego, CA).

In a further assay the target is T2, p300 (Homo sapiens, UniProt Q09472).
T2 construct: purchased Reaction Biology Corporation, Malvern, PA, USA
T2 sequence (Q09472 1284-1673): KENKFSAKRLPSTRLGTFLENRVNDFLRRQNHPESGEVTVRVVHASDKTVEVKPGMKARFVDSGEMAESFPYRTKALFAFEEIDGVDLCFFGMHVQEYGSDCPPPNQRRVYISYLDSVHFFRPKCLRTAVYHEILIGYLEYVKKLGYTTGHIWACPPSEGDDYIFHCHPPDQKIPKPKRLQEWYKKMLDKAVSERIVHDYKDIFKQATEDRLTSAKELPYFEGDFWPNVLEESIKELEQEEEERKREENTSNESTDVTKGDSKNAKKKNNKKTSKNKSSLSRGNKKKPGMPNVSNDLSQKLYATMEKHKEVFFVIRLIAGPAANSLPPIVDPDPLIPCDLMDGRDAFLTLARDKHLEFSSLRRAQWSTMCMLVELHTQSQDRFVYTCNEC
In words: HotSpot KAT assay. To be noted: 100 µM; means ± SD of three experiments; read-out: Residual Enzymatic Activity (%) p300. The method, then:
as §1, §2, §3, §4, §5, §6, §7, §8

The target of a further assay is T3, MINA53 (Homo sapiens, UniProt Q8IUF8).
T3 construct: MINA53 (Met1-Val464 and Ala26-Val464); histidine tag (TEV-cleavable) (cleaved yes); made in house; host or cells: E. coli BL21(DE3)-R3-pRARE2
T3 sequence (Q8IUF8 1-464 isoform Q8IUF8-4): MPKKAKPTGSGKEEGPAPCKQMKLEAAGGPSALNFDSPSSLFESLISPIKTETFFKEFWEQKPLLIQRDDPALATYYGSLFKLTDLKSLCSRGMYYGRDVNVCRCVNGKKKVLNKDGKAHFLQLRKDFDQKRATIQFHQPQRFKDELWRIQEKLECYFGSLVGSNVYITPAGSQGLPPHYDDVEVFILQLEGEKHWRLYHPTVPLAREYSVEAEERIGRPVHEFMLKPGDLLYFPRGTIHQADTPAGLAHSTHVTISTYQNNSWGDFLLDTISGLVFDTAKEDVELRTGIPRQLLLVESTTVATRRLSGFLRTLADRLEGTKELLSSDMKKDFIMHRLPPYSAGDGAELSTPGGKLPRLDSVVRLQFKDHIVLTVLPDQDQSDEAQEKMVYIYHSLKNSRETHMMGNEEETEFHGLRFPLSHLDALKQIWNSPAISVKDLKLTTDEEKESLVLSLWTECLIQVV
In words: MINA53 MS (RapidFire) hydroxylation inhibition assay, Rpl27a peptide.

In a further assay the target is T4, KDM6B (Homo sapiens, UniProt O15054).
T4 construct: (D1141- N-terminal S1761) N-terminal (M1- N-terminal R1641); made in house; host or cells: E. coli
T4 sequence (O15054 1141-1643 limits assumed): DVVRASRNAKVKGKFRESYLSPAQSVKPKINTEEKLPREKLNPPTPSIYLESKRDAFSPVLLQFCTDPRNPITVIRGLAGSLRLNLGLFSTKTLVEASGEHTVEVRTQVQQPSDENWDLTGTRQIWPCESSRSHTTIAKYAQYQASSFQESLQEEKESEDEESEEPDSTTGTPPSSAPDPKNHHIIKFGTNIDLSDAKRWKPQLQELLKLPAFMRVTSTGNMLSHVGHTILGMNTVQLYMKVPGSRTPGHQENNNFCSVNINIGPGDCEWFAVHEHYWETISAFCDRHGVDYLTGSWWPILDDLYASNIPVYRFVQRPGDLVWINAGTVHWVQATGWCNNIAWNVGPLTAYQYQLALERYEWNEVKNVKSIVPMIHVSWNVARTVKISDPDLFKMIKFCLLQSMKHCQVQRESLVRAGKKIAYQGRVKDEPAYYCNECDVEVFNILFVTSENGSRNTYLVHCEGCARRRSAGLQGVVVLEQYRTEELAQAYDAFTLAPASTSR
In words: AlphaScreen KDM inhibition assay. To be noted: read-out: IC50 KDM6B (0.1 nM), enzyme 0.1 nM, means ± SD. A general note: In Alpha technology, singlet oxygen from a donor bead excites a nearby acceptor bead.

The target in a further assay is FIH (Homo sapiens, UniProt Q9NWT6). In words: RapidFire FIH inhibition assay. The note with it: read-out: IC50 FIH (50 nM); MS based; enzyme 50 nM; means ± SD. The method, then:
The reported procedure was used.[28] Tris(hydroxymethyl)aminomethane was from Fisher; all other reagents were from Sigma-Aldrich and of the highest available purity. FAS was prepared freshly every day as a 400 mM stock solution in 20 mM HCl, and this was then diluted to 1 mM in deionized water. […] The synthetic “consensus” ankyrin repeat derived peptide ([…]-CONH2) was synthesized by GL Biochem (Shanghai) Ltd and dissolved to 1 mM in deionized water. […] After 15 min, the reaction was quenched by the addition of 4 μL of 10% (v/v) aqueous formic acid and the reaction was transferred to a RapidFire RF360 high throughput sampling robot. The samples were aspirated under vacuum onto a C4 solid-phase extraction (SPE) cartridge. After an aqueous washing step (0.1% formic acid), to remove nonvolatile buffer components from the C4 SPE cartridge, peptides were eluted in an organic washing step (85% (v/v) aqueous acetonitrile, 0.1% formic acid) and injected into an Agilent 6530 Q-TOF mass spectrometer. Ion chromatogram data were extracted for the nonhydroxylated peptide substrate and the hydroxylated peptide product; peak area data for the extracted ion chromatograms were integrated using RapidFire Integrator software. Percentage conversion of the substrate to the product was calculated in Microsoft excel, and IC50 curves were generated using GraphPad Prism 5.0.

The target in a further assay is T5, KDM5B (Homo sapiens, UniProt Q9UGL1).
T5 sequence (Q9UGL1 26-101 limits assumed): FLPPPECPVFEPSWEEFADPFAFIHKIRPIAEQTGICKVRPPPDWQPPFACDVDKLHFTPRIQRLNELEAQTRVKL
T5 sequence (Q9UGL1 374-770 limits assumed): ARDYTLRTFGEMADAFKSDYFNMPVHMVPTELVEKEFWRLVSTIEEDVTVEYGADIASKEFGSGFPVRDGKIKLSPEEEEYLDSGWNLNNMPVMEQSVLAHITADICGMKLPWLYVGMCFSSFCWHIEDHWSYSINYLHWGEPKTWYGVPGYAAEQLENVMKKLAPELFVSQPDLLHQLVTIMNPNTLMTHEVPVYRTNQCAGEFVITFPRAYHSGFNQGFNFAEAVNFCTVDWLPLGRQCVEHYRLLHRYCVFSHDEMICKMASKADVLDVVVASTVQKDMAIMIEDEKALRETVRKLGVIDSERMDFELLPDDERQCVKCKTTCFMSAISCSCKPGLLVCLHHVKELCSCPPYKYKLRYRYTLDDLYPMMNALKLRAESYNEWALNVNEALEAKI
In words: AlphaScreen KDM inhibition assay. The note with it: read-out: IC50 KDM5B (2.0 nM), enzyme 2.0 nM, means ± SD.

The target in another assay is T6, KDM2A (Homo sapiens, UniProt Q9Y2K7).
T6 construct: (M1-P517); His6 (N); made in house; host or cells: insect cells
T6 sequence (Q9Y2K7 1-517): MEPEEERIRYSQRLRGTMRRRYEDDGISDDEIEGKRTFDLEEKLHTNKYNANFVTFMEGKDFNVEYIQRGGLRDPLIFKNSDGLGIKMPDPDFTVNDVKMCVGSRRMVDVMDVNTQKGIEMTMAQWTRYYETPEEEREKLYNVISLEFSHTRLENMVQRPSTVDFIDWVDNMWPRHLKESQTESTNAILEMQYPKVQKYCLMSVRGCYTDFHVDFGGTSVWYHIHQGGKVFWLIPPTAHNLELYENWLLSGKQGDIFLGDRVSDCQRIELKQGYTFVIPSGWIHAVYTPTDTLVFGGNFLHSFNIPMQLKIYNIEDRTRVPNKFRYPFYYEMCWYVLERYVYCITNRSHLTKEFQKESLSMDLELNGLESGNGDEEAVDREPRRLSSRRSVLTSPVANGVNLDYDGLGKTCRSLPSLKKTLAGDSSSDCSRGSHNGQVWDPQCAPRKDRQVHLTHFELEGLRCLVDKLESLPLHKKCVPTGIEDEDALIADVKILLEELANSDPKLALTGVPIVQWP
Nature of the assay: AlphaScreen KDM inhibition assay. The note with it: enzyme 25 nM, means ± SD.

Sequence of FIH (Q9NWT6 whole entry): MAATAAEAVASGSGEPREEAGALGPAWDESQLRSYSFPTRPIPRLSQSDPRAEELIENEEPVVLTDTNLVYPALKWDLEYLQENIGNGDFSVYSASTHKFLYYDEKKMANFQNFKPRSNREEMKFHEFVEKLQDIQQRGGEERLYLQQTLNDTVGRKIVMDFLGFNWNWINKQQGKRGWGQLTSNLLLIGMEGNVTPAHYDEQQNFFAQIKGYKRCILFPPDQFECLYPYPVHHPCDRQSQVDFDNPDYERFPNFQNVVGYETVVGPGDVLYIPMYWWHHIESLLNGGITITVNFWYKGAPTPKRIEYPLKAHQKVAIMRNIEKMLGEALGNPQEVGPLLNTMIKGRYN
T1 sequence (Q92831 492-658): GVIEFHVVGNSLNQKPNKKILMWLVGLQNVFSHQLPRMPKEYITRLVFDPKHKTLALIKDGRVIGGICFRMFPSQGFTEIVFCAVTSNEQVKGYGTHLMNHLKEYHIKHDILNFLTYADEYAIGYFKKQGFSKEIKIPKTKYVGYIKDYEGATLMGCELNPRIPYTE

A word on the IC50: it is the concentration that inhibits the measured activity by half. For the compound `O=C(O)c1cnc(SCCCc2ccccc2)[nH]c1=O` [compound 10, 2-((3-Phenylpropyl)thio)-3,4-dihydro-4-oxopyrimidine-5-carboxylic Acid], the remaining activity at 100 µM at PCAF was determined as 101 ± 2.7%; on p300, 97.9 ± 2%. The IC50 stood at 1.5 ± 0.1 µM at MINA53 (MS based, enzyme 150 nM, means ± SD of at least three experiments, read-out: IC50 MINA53 (150 nM)); 70 ± 4 µM at KDM6B; 29.8 ± 2 µM on FIH; 58.9 ± 4.1 µM on KDM5B; 68.3 ± 4.2 µM at KDM2A. Besides, the “preferential inhibition of MINA53 over all other tested 2OG oxygenases” value at MINA53 (worst case of the panel of Table 1) was at least 20 fold.
